What all share (type): cell-based
Series [1] is described as follows: MTT cellular viability assay, OPM2. The conditions noted are these: human, OPM2 cells, read-out: percentage of viable cells. As for the experimental part: (§1) The effect of PMI-5011 and bioactive compounds on the viability of cells was tested using a standard colorimetric MTT assay. The MTT Cell Proliferation Assay Kit was purchased from VWR, Radnor, Pa. MM.1S and OPM2 cells were treated with 10 μg/mL of PMI-5011 and 1, 10, and 30 μg/mL of DMC-1, DMC-2, KOE and davidigenin and plated at a density of 10^6 cells/mL in a 96-well plate with each well containing 250 μL of the sample. The plated cells were then incubated at 37° C. for 16 h. 10 μg/mL for PMI-5011 and a 16-h treatment period was used in this study based on previous findings by Yu et al.^24 Parallel plates were prepared for positive and negative solvent vehicle control with the same volume of DMSO and ethanol as for the treated cells. On the day of the experiment, the 96-well plates were centrifuged at 1000×g at 4° C. for 5 min in a microplate compatible centrifuge. The media was discarded and 50 μL of serum-free media and 50 μL of the MTT reagent were added into each well. For a background control, 50 μL of the MTT reagent was added into a well containing media only (no cells). The plate was incubated at 37° C. for 3 h in the dark. After incubation, 150 μL of the MTT solvent was added into each well. The plate was wrapped in a foil and placed on an orbital shaker for 15 min. Finally, the absorbance was measured at λex=544 nm and λem=590 nm using a Wallac 1420 VICTOR2 multilabel HTS counter fluorometry (Perkin Elmer (Waltham, Mass.). The percentage viable cells was obtained by Eq. 1.
(§2) % Viable Cells=S-N/C-N×100 (Eq. 1)
(§3) Where, S denotes raw absorbance values from samples, N denotes average absorbance value of the background control and C denotes the highest average absorbance value of positive vehicle control. The obtained percentage cytotoxicity values were then statistically analyzed for their significance. Each data point represents triplicate data points from duplicate experiments. The effect of PMI-5011 and the selected bioactive compounds on C2C12 cell viability has previously been reported.^24
For orientation: Formazan colour is commonly taken as a measure of viable cells.

A short description of series [2]: MTT cellular viability assay, MM.1S. As to conditions: human, MM.1S cells, read-out: percentage of viable cells. The protocol: as §1, §2, §3
Series [3] concerns deubiquitinating enzymes (DUBs). The series is described as follows: DUB activity (Z-LRGG-AMC cleavage) in lysates of treated OPM2 cells. As to conditions: for Vmax / effect on DUB activity vs DMSO control / Km / n (Hill coefficient): 16 h. The protocol: OPM2 cells were maintained in RPMI 1640 media supplemented with 12% FBS, 21.8 mM glucose, 8.6 mM HEPES (pH 7.4) and 1.0 mM sodium pyruvate. MM.1S cell line were maintained in RPMI 1640 media supplemented with 10% FBS. The cells were all cultured in T175 flasks (VWR, Radnor, Pa.). All media components were from Corning, Atlanta, Ga. unless otherwise noted. To test the effect of the ethanolic extract and bioactive compounds on DUB activity, cells were exposed to a 16-h pretreatment with 10 μg/mL of PMI-5011 and 1, 10, 30 μg/mL concentrations of DMC-1, DMC-2, KOE, and davidigenin before lysing the cells for experimentation. All compounds were reconstituted in DMSO to obtain stock concentrations, which was further diluted in culture media to obtain the desired experimental concentrations. For vehicle control, a subpopulation of cells was treated with pure DMSO diluted in a similar manner for the same duration. Upon treatment, cell lysates (both OPM2 and MM.1S) were generated by harvesting 1×10^6 cells/mL, followed by washing 2× and pelleting in phosphate buffered saline (PBS; 137 mM NaCl, 10 mM Na2HPO4, […], and 1.75 mM KH2PO4 at pH 7.4). The cell pellet was re-suspended in an approximately equivalent volume of M-PER to the volume of the cell pellet (1000-2000 μL) then vortexed for 10 min at room temperature. Following this, the mixture was centrifuged at 14,000×g for 15 min at 4° C. and the supernatant transferred to a centrifuge tube and stored on ice until use. Total protein concentration was determined using a NanoDrop 2000c (Thermo Scientific, Madison, Wis.).
The commercial DUB reporter, Z-LRGG-AMC (substrate) (SEQ ID NO: 1) was reconstituted in DMSO to obtain a final stock concentration of 1.44 mM. This stock reporter was diluted as needed in assay buffer (50 mM HEPES, pH 7.4, 150 mM NaCl, 2 mM DTT, and 0.02% Tween-20) supplemented with 4 mg/mL cell lysates (source of DUBs) to reach the desired reporter concentration with a final volume of 100 μL in a 96-well plate. OPM2 and MM.1S cell lysates from different treatments (10 μg/mL of PMI-5011; 1, 10, and 30 μg/mL of DMC-1, DMC-2, KOE, davidigenin and control vehicle DMSO) and C2C12 cell lysates were used to interrogate the effect of the ethanolic extract and selected bioactive compounds on DUB activity. Reporter only and lysates only (noise/background) samples were included in the 96-well plate to confirm that the rates observed were due to DUB-mediated hydrolysis initiated by the cell lysates. The 96-well plate was maintained at a temperature of 30° C. in the dark for the duration of the experiment. The fluorescence signals emitted as a result of DUB-mediated cleavage of AMC (λex=355 nm and λem=460 nm) were quantified using a Wallac 1420 VICTOR2 multilabel HTS counter fluorometry (Perkin Elmer (Waltham, Mass.). Readings were collected every 30 min for 6 h. The normalized signals were obtained by comparing the treatment with noise and background fluorescence values which were then statistically analyzed for their significance. Each data point represents triplicate data points from duplicate experiments. A calibration curve was generated for known concentrations of AMC to correlate the fluorescence signal (AU) to concentration (μM). The approximate concentration of free fluorophore was used to calculate reaction rates (μM/min) for each substrate concentration using linear regression analysis.
All data visualization, interpretation and curve-fittings were performed using Origin Pro (OriginLab, Northampton, MA) while statistical analyses of experimental data were carried out using SAS 9.4 (SAS Solutions). The analyses of enzyme-substrate reactions in all cell lysates started with scatter plotting the fluorometry signals (p,M) measured for each substrate concentration against time (min). Fluorescence signals measured for each substrate concentration remained stable during the first 30 min, indicating there was a 30-minute lag period before reaction initiation. […]

Usually Km stands for the concentration of substrate that gives half-maximal velocity. As to `COc1ccc(CCC(=O)c2ccc(O)cc2O)cc1` [DMC-2, 1-(2,4-dihydroxyphenyl)-3-(4-methoxyphenyl)propan-1-one], the viability at 16 h, 1 μg/mL in series [1] (1 μg/mL) is ~85%; in series [2] (1 μg/mL) it was ~100%. Also, the viability at 16 h, 30 μg/mL in series [1] (30 μg/mL) was ~70%; in series [2] (30 μg/mL) it was ~65%. Moreover, the Vmax in series [3] (OPM2, 1 μg/mL) came out at 21.38 ± 2.68 µM/min; in series [3] (OPM2, 10 μg/mL) it was 22.71 ± 1.64 µM/min; in series [3] (OPM2, 30 μg/mL) it was 184.79 ± 22.09 µM/min; in series [3] (Table 2, OPM-2, 1 μg/mL, in µM/min) it was 21.38; in series [3] (Table 2, OPM-2, 10 μg/mL, in µM/min), 22.71; in series [3] (Table 2, OPM-2, 30 μg/mL, in µM/min), 184.79. Besides, the “effect on DUB activity vs DMSO control” value in series [3] (OPM2, 1 μg/mL) is “significantly enhanced”; in series [3] (OPM2, 10 μg/mL), “significantly enhanced”; in series [3] (OPM2, 30 μg/mL), “significantly enhanced”. For the same molecule, the “effect of increasing concentration on DUB activity (normalized Vmax)” value in series [3] (OPM2, 1, 10, 30 μg/mL, regression fit) is reported as “exponential increase”. Further, the Michaelis constant (Km) in series [3] (Table 2, OPM-2, 1 μg/mL) is 44.8 µM; in series [3] (Table 2, OPM-2, 10 μg/mL), 35.5 µM; in series [3] (Table 2, OPM-2, 30 μg/mL), 48.2 µM. The “n (Hill coefficient)” value in series [3] (Table 2, OPM-2, 1 μg/mL) is 1.47; in series [3] (Table 2, OPM-2, 10 μg/mL), 1.59; in series [3] (Table 2, OPM-2, 30 μg/mL), 1.49.

The values are drawn from patent US20230293614A1, “COMPOSITIONS AND METHODS OF TREATING UPS-ASSOCIATED DISEASES” (Board of Supervisors of Louisiana State University and …, priority 2020, published 2023).
